Source: patent publication US9738656B2, “Pyranodipyridine compound” (Eisai R&D Management Co., Ltd., priority 2015, dated 2017)
Like-named read-outs stand apart in the source and are kept apart here.

Key:
[1] = system: AMPA receptor; assay: AMPA-induced intraneuronal calcium entry-suppressing action (primary culture of embryonic rat cerebral cortex neurons, Fura 2-AM); format: cell-based; details: AMPA stimulation, intracellular calcium increase, read-out: IC50 for AMPA inhibition
Text: The present inventors conducted the following tests, in order to confirm the effects of the compounds of the present invention. With regard to the AMPA receptor inhibitory action of the compounds, AMPA-induced intraneuronal calcium entry-suppressing action was examined using a primary culture system of embryonic rat cerebral cortex neurons. With regard to the anticonvulsant action of the compounds, 6 Hz (44 mA) stimulation-induced convulsions known as a treatment-resistant convulsion model were used. AMPA inhibitor-induced central nervous system depressant action such as loss of coordination was evaluated using a rotarod performance test.
AMPA-Induced Intraneuronal Calcium Entry-Suppressing Action
<Culture conditions> Whole fetuses were removed from the uteri of Wistar rats at embryonic day 18 (Charles River Japan) anesthetized with isoflurane. Whole brains were removed from the whole fetuses, and the cerebral cortex was separated in Leibovitz's L-15 medium or Hanks balanced salt solution containing 20% fetal bovine serum. The resulting material was treated with trypsin/DNase solution at 37° C. for 45 to 60 minutes. After the serum was added to stop the trypsin reaction, the resulting material was centrifuged at 1200 to 1500 rpm for 3 to 5 minutes. After the supernatant was removed, Neurobasal medium (containing 2% B-27 supplement and the like; hereinafter “Neurobasal medium”) was added, and the cells were uniformly dispersed by gently pipetting. The cell suspension was slightly stirred, and then filtered through a nylon mesh filter. Viable cells were counted using a hemocytometer, and diluted with Neurobasal medium to 8 to 10×10^5 cells/mL. The cells were seeded into 96 well plates at 100 μL per well and cultured in a CO2 incubator (5% CO2, 37° C.). The medium was replaced after 24 hours, and neurons cultured for 7 to 21 days were used.
On the day of the assay, the medium was removed and replaced with a calcium measurement solution containing 5 to 10 μmol/L of Fura 2-AM (140 mmol/L sodium chloride, 5 mmol/L potassium chloride, 2 mmol/L magnesium chloride, 3 mmol/L calcium chloride, 24 mmol/L D(+)-glucose, 10 mmol/L HEPES, 1 μmol/L MK-801, pH 7.4), and the cells were treated in a CO2 incubator (5% CO2, 37° C.) for 1 to 2 hours. The calcium measurement solution containing the Fura-2 AM solution was subsequently removed, and the neurons in each well were washed twice with the calcium measurement solution for each well, and then 50 μL of the calcium measurement solution was added to each well. Subsequently, 50 μL of a test compound or medium prepared at a concentration 3-fold higher than the final concentration was added, and the cells were pre-treated for about 15 minutes. The plates were subsequently placed on the Fluorescence Drug Screening System 6000 (Hamamatsu Photonics K.K.). The cells were stimulated by adding to each well 50 μL of an AMPA stimulating solution prepared to 3.3 μmol/L with the calcium measurement solution. Changes in calcium concentration were measured as the changes in fluorescence intensity at excitation wavelengths of 340 nm and 380 nm (measurement wavelength: 540 nm). The rate of change of the intracellular calcium concentration was calculated according to the following equation: Rate of increase of the intracellular calcium concentration (% control)=(Tpost−Tpre)/(Cpost−Cpre)×100
wherein Tpost: the proportion of fluorescence of sample wells after stimulation; Tpro: the proportion of fluorescence of sample wells before stimulation; Cpost: the proportion of fluorescence of control wells after stimulation; and Cpre: the proportion of fluorescence of control wells before stimulation.
The IC50 value of the test compound for AMPA inhibition was determined from the rates of increase of the intracellular calcium concentration at various concentrations.

[2] = system: male ddY mice; assay: Rotarod performance test-1; format: in vivo; details: oral, 25 minutes after administration, dose at which time of fall is reduced to 50% of medium control
Procedure: (§1) With regard to the AMPA receptor inhibitory action of the compounds, AMPA-induced intraneuronal calcium entry-suppressing action was examined using a primary culture system of embryonic rat cerebral cortex neurons. […] AMPA inhibitor-induced central nervous system depressant action such as loss of coordination was evaluated using a rotarod performance test.
Rotarod Performance Test-1
(§2) A rotarod (MK-660C from Muromachi Kikai Co., Ltd.) was used for the measurement. The rod (bar) was controlled to be gradually accelerated from its stationary state to a speed of 40 rotations/minute after 180 seconds. As the animals, 5 or 6-week-old male ddY mice (Japan SLC, Inc.) were used. On the day on which the test was performed, the mice were trained under the above-described measurement conditions, and mice that were able to ride on the rod for 1 minute or longer with good reproducibility were selected and subjected to the test.
Each of the compounds was dissolved in a medium (a solution prepared by adding DMSO to a 0.5% methylcellulose solution to a final concentration of 10%. As required, 0.5 to 5% of 1 mol/L hydrochloric acid and 5% Cremophor™ were added), and then orally administered to the mice in optimum four doses between 0.5 to 10 mg/kg. As the control, only the medium was orally administered. After a lapse of 25 minutes from the oral administration of each compound, the mice were subjected to the rotarod performance test. Five to twenty-five mice were used for each compound group.

[3] = system: male ddY mice; assay: Murine 6 Hz convulsion models (6 Hz, 44 mA corneal stimulation); format: in vivo; details: for ED50: Mus musculus, 25 min; for Therapeutic Index: TD50/ED50 (rotarod test-1 / 6 Hz convulsion model)
Procedure: as §1
Immediately after the rotarod performance test-1 was completed, the cornea was stimulated by passing an electrical current (6 Hz, 44 mA, 0.2-millisecond pulse, for 3 seconds) from a copper electrode moistened with physiological saline, and the presence or absence of the development of a seizure was observed. The seizure was determined by the development of akinesia, jaw and forelimb clonus, whisker tremors, and Straub tail.
Further, for the purpose of evaluating the safety margin of each of the compounds of the present invention, the therapeutic index (TD50/ED50) was calculated by comparing the seizure inhibitory action (ED50) in the 6 Hz convulsion models and the neurotoxic action (TD50) in the rotarod performance test-1.

[4] = system: male ddY mice; assay: Rotarod performance test-2; format: in vivo; details: for Time of Fall: mice, oral at the ED50 dose of the 6 Hz model, 25 minutes after administration; for Ratio Relative to the Control Compound: time of fall relative to control compound
Procedure: Rotarod Performance Test-2
as §2
As the control, only the medium was orally administered. After a lapse of 25 minutes from the oral administration of each compound, the mice were subjected to the rotarod performance test. Five or six mice were used for each compound group. For each compound, the time until the mice fell from the rotarod was measured.

[5] = mice, 6 Hz 44 mA stimulation-induced seizure, oral, after rotarod test-1 (25 minutes after administration), read-out: ED50

SMILES	IC50 [1] [nM]	TD50 [2]	ED50 ([3]; po) [mg/kg]	Therapeutic Index ([3]; mice)	Time of Fall ([4]; Table 3) [s]	Ratio Relative to the Control Compound ([4]; Table 3)	Time of Fall ([4]; Table 4) [s]	Ratio Relative to the Control Compound ([4]; Table 4)	ED50 [3, 5] [mg/kg]
N#Cc1ccccc1-n1nc2c(c(-c3cccnc3)c1=O)COc1ccccc1-2 [Control Compound, 2-(3-oxo-4-(pyridin-3-yl)-3,5-dihydro-2H-chromeno[4,3-c]pyridazin-2-yl)benzonitrile, reference compound]	20	2.73 mg/kg, p.o.	3.96	0.69	12.2	1.0	14.3	1.0	–
O=c1c(-c2ccccc2Cl)cc2c(n1-c1cccnc1)COc1cccnc1-2 [Example 1, 9-(2-chlorophenyl)-7-(pyridin-3-yl)-6H-pyrano[3,2-b:5,4-b′]dipyridin-8(7H)-one]	33.5	3.09 mg/kg, p.o.	2.08	1.49	56.3	4.6	–	–	–
COc1cncc(-n2c3c(cc(-c4cccc(F)c4C#N)c2=O)-c2ncccc2OC3)c1 [Example 2, 2-fluoro-6-(7-(5-methoxypyridin-3-yl)-8-oxo-7,8-dihydro-6H-pyrano[3,2-b:5,4-b′]dipyridin-9-yl)benzonitrile]	16	4.50 mg/kg, p.o.	1.91	2.36	148.0	12.1	–	–	–
Cc1ccc(-n2c3c(cc(-c4cccc(F)c4C#N)c2=O)-c2ncccc2OC3)cn1 [Example 3, 2-fluoro-6-(7-(6-methylpyridin-3-yl)-8-oxo-7,8-dihydro-6H-pyrano[3,2-b:5,4-b′]dipyridin-9-yl)benzonitrile]	10.4	2.47 mg/kg, p.o.	1.21	2.04	124.7	10.2	–	–	–
Cc1ccc(-n2c3c(cc(-c4cccc(F)c4Cl)c2=O)-c2ncccc2OC3)cn1 [Example 4, 9-(2-chloro-3-fluorophenyl)-7-(6-methylpyridin-3-yl)-6H-pyrano[3,2-b:5,4-b′]dipyridin-8(7H)-one]	28.3	3.90 mg/kg, p.o.	2.33	1.67	73.2	6.0	–	–	–
COc1ncc(-n2c3c(cc(-c4cccc(F)c4C#N)c2=O)-c2ncccc2OC3)cn1 [Example 5, 2-fluoro-6-(7-(2-methoxypyrimidin-5-yl)-8-oxo-7,8-dihydro-6H-pyrano[3,2-b:5,4-b′]dipyridin-9-yl)benzonitrile]	31.8	6.53 mg/kg, p.o.	–	2.02	–	–	108.7	7.6	3.23
O=c1c(-c2c(F)c(F)cc(F)c2F)cc2c(n1-c1cccnc1)COc1cccnc1-2 [Example 6, 7-(pyridin-3-yl)-9-(2,3,5,6-tetrafluorophenyl)-6H-pyrano[3,2-b:5,4-b′]dipyridin-8(7H)-one]	34.6	4.44 mg/kg, p.o.	2.86	1.55	68.0	5.6	–	–	–
N#Cc1ncccc1-c1cc2c(n(-c3ccsc3)c1=O)COc1cccnc1-2 [Example 7, 3-(8-oxo-7-(thiophen-3-yl)-7,8-dihydro-6H-pyrano[3,2-b:5,4-b′]dipyridin-9-yl)picolinonitrile]	15.5	1.70 mg/kg, p.o.	0.97	1.75	71.7	5.9	–	–	–
N#Cc1nccnc1-c1cc2c(n(-c3ccsc3)c1=O)COc1cccnc1-2 [Example 8, 3-(8-oxo-7-(thiophen-3-yl)-7,8-dihydro-6H-pyrano[3,2-b:5,4-b′]dipyridin-9-yl)pyrazine-2-carbonitrile]	70.1	>8 mg/kg, p.o.	–	>1.65	65.8	5.4	–	–	4.85
O=c1c(-c2ccccc2F)cc2c(n1-c1ccccc1)COc1cccnc1-2 [Example 9, 9-(2-fluorophenyl)-7-phenyl-6H-pyrano[3,2-b:5,4-b′]dipyridin-8(7H)-one]	50.9	9.55 mg/kg, p.o.	–	2.83	109.7	9.0	–	–	3.38
N#Cc1ccccc1-c1cc2c(n(-c3ccc(F)cc3)c1=O)COc1cccnc1-2 [Example 10, 2-(7-(4-fluorophenyl)-8-oxo-7,8-dihydro-6H-pyrano[3,2-b:5,4-b′]dipyridin-9-yl)benzonitrile]	18.8	3.37 mg/kg, p.o.	2.08	1.62	84.2	6.9	–	–	–
N#Cc1ncccc1-c1cc2c(n(-c3ccc(F)cc3)c1=O)COc1cccnc1-2 [Example 11, 3-(7-(4-fluorophenyl)-8-oxo-7,8-dihydro-6H-pyrano[3,2-b:5,4-b′]dipyridin-9-yl)picolinonitrile]	26.3	5.05 mg/kg, p.o.	–	2.99	114.7	9.4	–	–	1.69
N#Cc1ncccc1-c1cc2c(n(-c3ccccc3F)c1=O)COc1cccnc1-2 [Example 12, 3-(7-(2-fluorophenyl)-8-oxo-7,8-dihydro-6H-pyrano[3,2-b:5,4-b′]dipyridin-9-yl)picolinonitrile]	33	3.06 mg/kg, p.o.	1.66	1.84	80.5	6.6	–	–	–
